Data published in PubChem BioAssay AID2060503 (Molecular Pharmacology Branch, DTP, NCI, 2025).

tested on: 817829-284-R-J1-PDC complex spheroids, viability; experiment: Anticancer human tumor 817829-284-R-J1-PDC patient-derived colon adenocarcinoma cell line growth inhibition [GQUAD]; conditions: curve of first compound; second compound 0.0316 µM
Summary of the method: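 Viability of tumor cells grown as complex spheroids with endothelial and stromal cells, exposed to drug combinations. Top concentration at or near clinical Cmax (else 10 microM), diluted in half-log increments.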
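Note: spheroids exposed to agents for 7 days before readout.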

Row | Structure (SMILES) | IC50 [nM]
1 | C=CCn1c(=O)c2cnc(Nc3ccc(N4CCN(C)CC4)cc3)nc2n1-c1cccc(C(C)(C)O)n1 + CN(C)c1ccc(Nc2c3ccc(NC(=O)CCN4CCCC4)cc3nc3cc(NC(=O)CCN4CCCC4)ccc23)cc1 | 240
2 | CCCS(=O)(=O)Nc1ccc(F)c(C(=O)c2c[nH]c3ncc(-c4ccc(Cl)cc4)cc23)c1F + CN(C)c1ccc(Nc2c3ccc(NC(=O)CCN4CCCC4)cc3nc3cc(NC(=O)CCN4CCCC4)ccc23)cc1 | 5750
3 | COc1ncnc(C2CC2)c1-c1ncc2cnn(Cc3ccc(-c4nc(C(F)(F)F)cn4C(C)C)cc3)c2n1 + CN(C)c1ccc(Nc2c3ccc(NC(=O)CCN4CCCC4)cc3nc3cc(NC(=O)CCN4CCCC4)ccc23)cc1 | > 10000
4 | Cc1[nH]c2ccccc2c1CCNCc1ccc(/C=C/C(=O)NO)cc1 + CN(C)c1ccc(Nc2c3ccc(NC(=O)CCN4CCCC4)cc3nc3cc(NC(=O)CCN4CCCC4)ccc23)cc1 | 52.1
5 | O=C(NO)c1cnc(N2CCN(S(=O)(=O)c3ccc4ccccc4c3)CC2)nc1 + CN(C)c1ccc(Nc2c3ccc(NC(=O)CCN4CCCC4)cc3nc3cc(NC(=O)CCN4CCCC4)ccc23)cc1 | 174
6 | CC1COCCN1c1cc(C2(O)CC3CCC(C2)O3)c2cnn(-c3ccn[nH]3)c2n1 (stereo unspecified) + Cc1[nH]c2ccc(F)cc2c1-c1nc2c3cccnc3c3ncccc3c2[nH]1 | < 31.6

same assay, conditions: curve of first compound; second compound 0.1 µM

Row | Structure (SMILES) | IC50 [nM]
7 | C=CCn1c(=O)c2cnc(Nc3ccc(N4CCN(C)CC4)cc3)nc2n1-c1cccc(C(C)(C)O)n1 + CN(C)c1ccc(Nc2c3ccc(NC(=O)CCN4CCCC4)cc3nc3cc(NC(=O)CCN4CCCC4)ccc23)cc1 | 220
8 | CCCS(=O)(=O)Nc1ccc(F)c(C(=O)c2c[nH]c3ncc(-c4ccc(Cl)cc4)cc23)c1F + CN(C)c1ccc(Nc2c3ccc(NC(=O)CCN4CCCC4)cc3nc3cc(NC(=O)CCN4CCCC4)ccc23)cc1 | 5660
9 | COc1ncnc(C2CC2)c1-c1ncc2cnn(Cc3ccc(-c4nc(C(F)(F)F)cn4C(C)C)cc3)c2n1 + CN(C)c1ccc(Nc2c3ccc(NC(=O)CCN4CCCC4)cc3nc3cc(NC(=O)CCN4CCCC4)ccc23)cc1 | > 10000
10 | Cc1[nH]c2ccccc2c1CCNCc1ccc(/C=C/C(=O)NO)cc1 + CN(C)c1ccc(Nc2c3ccc(NC(=O)CCN4CCCC4)cc3nc3cc(NC(=O)CCN4CCCC4)ccc23)cc1 | 45.7
11 | O=C(NO)c1cnc(N2CCN(S(=O)(=O)c3ccc4ccccc4c3)CC2)nc1 + CN(C)c1ccc(Nc2c3ccc(NC(=O)CCN4CCCC4)cc3nc3cc(NC(=O)CCN4CCCC4)ccc23)cc1 | 184
12 | CC1COCCN1c1cc(C2(O)CC3CCC(C2)O3)c2cnn(-c3ccn[nH]3)c2n1 (stereo unspecified) + Cc1[nH]c2ccc(F)cc2c1-c1nc2c3cccnc3c3ncccc3c2[nH]1 | < 31.6

same assay, conditions: curve of first compound; second compound 0.316 µM

Row | Structure (SMILES) | IC50 [nM]
13 | C=CCn1c(=O)c2cnc(Nc3ccc(N4CCN(C)CC4)cc3)nc2n1-c1cccc(C(C)(C)O)n1 + CN(C)c1ccc(Nc2c3ccc(NC(=O)CCN4CCCC4)cc3nc3cc(NC(=O)CCN4CCCC4)ccc23)cc1 | 263
14 | CCCS(=O)(=O)Nc1ccc(F)c(C(=O)c2c[nH]c3ncc(-c4ccc(Cl)cc4)cc23)c1F + CN(C)c1ccc(Nc2c3ccc(NC(=O)CCN4CCCC4)cc3nc3cc(NC(=O)CCN4CCCC4)ccc23)cc1 | 5880
15 | COc1ncnc(C2CC2)c1-c1ncc2cnn(Cc3ccc(-c4nc(C(F)(F)F)cn4C(C)C)cc3)c2n1 + CN(C)c1ccc(Nc2c3ccc(NC(=O)CCN4CCCC4)cc3nc3cc(NC(=O)CCN4CCCC4)ccc23)cc1 | > 10000
16 | Cc1[nH]c2ccccc2c1CCNCc1ccc(/C=C/C(=O)NO)cc1 + CN(C)c1ccc(Nc2c3ccc(NC(=O)CCN4CCCC4)cc3nc3cc(NC(=O)CCN4CCCC4)ccc23)cc1 | 47.1
17 | O=C(NO)c1cnc(N2CCN(S(=O)(=O)c3ccc4ccccc4c3)CC2)nc1 + CN(C)c1ccc(Nc2c3ccc(NC(=O)CCN4CCCC4)cc3nc3cc(NC(=O)CCN4CCCC4)ccc23)cc1 | 189
18 | CC1COCCN1c1cc(C2(O)CC3CCC(C2)O3)c2cnn(-c3ccn[nH]3)c2n1 (stereo unspecified) + Cc1[nH]c2ccc(F)cc2c1-c1nc2c3cccnc3c3ncccc3c2[nH]1 | < 31.6

same assay, conditions: curve of first compound; second compound 1 µM

Row | Structure (SMILES) | IC50 [nM]
19 | C=CCn1c(=O)c2cnc(Nc3ccc(N4CCN(C)CC4)cc3)nc2n1-c1cccc(C(C)(C)O)n1 + CN(C)c1ccc(Nc2c3ccc(NC(=O)CCN4CCCC4)cc3nc3cc(NC(=O)CCN4CCCC4)ccc23)cc1 | 231
20 | CCCS(=O)(=O)Nc1ccc(F)c(C(=O)c2c[nH]c3ncc(-c4ccc(Cl)cc4)cc23)c1F + CN(C)c1ccc(Nc2c3ccc(NC(=O)CCN4CCCC4)cc3nc3cc(NC(=O)CCN4CCCC4)ccc23)cc1 | 5680
21 | COc1ncnc(C2CC2)c1-c1ncc2cnn(Cc3ccc(-c4nc(C(F)(F)F)cn4C(C)C)cc3)c2n1 + CN(C)c1ccc(Nc2c3ccc(NC(=O)CCN4CCCC4)cc3nc3cc(NC(=O)CCN4CCCC4)ccc23)cc1 | > 10000
22 | Cc1[nH]c2ccccc2c1CCNCc1ccc(/C=C/C(=O)NO)cc1 + CN(C)c1ccc(Nc2c3ccc(NC(=O)CCN4CCCC4)cc3nc3cc(NC(=O)CCN4CCCC4)ccc23)cc1 | 53.3
23 | O=C(NO)c1cnc(N2CCN(S(=O)(=O)c3ccc4ccccc4c3)CC2)nc1 + CN(C)c1ccc(Nc2c3ccc(NC(=O)CCN4CCCC4)cc3nc3cc(NC(=O)CCN4CCCC4)ccc23)cc1 | 182
24 | CC1COCCN1c1cc(C2(O)CC3CCC(C2)O3)c2cnn(-c3ccn[nH]3)c2n1 (stereo unspecified) + Cc1[nH]c2ccc(F)cc2c1-c1nc2c3cccnc3c3ncccc3c2[nH]1 | < 31.6

same assay, conditions: curve of first compound; second compound 3.16 µM

Row | Structure (SMILES) | IC50 [nM]
25 | C=CCn1c(=O)c2cnc(Nc3ccc(N4CCN(C)CC4)cc3)nc2n1-c1cccc(C(C)(C)O)n1 + CN(C)c1ccc(Nc2c3ccc(NC(=O)CCN4CCCC4)cc3nc3cc(NC(=O)CCN4CCCC4)ccc23)cc1 | 214
26 | CCCS(=O)(=O)Nc1ccc(F)c(C(=O)c2c[nH]c3ncc(-c4ccc(Cl)cc4)cc23)c1F + CN(C)c1ccc(Nc2c3ccc(NC(=O)CCN4CCCC4)cc3nc3cc(NC(=O)CCN4CCCC4)ccc23)cc1 | 5320
27 | COc1ncnc(C2CC2)c1-c1ncc2cnn(Cc3ccc(-c4nc(C(F)(F)F)cn4C(C)C)cc3)c2n1 + CN(C)c1ccc(Nc2c3ccc(NC(=O)CCN4CCCC4)cc3nc3cc(NC(=O)CCN4CCCC4)ccc23)cc1 | > 10000
28 | Cc1[nH]c2ccccc2c1CCNCc1ccc(/C=C/C(=O)NO)cc1 + CN(C)c1ccc(Nc2c3ccc(NC(=O)CCN4CCCC4)cc3nc3cc(NC(=O)CCN4CCCC4)ccc23)cc1 | 47.7
29 | O=C(NO)c1cnc(N2CCN(S(=O)(=O)c3ccc4ccccc4c3)CC2)nc1 + CN(C)c1ccc(Nc2c3ccc(NC(=O)CCN4CCCC4)cc3nc3cc(NC(=O)CCN4CCCC4)ccc23)cc1 | 170
30 | CC1COCCN1c1cc(C2(O)CC3CCC(C2)O3)c2cnn(-c3ccn[nH]3)c2n1 (stereo unspecified) + Cc1[nH]c2ccc(F)cc2c1-c1nc2c3cccnc3c3ncccc3c2[nH]1 | < 31.6

same assay, conditions: curve of first compound; second compound 10 µM

Row | Structure (SMILES) | IC50 [nM]
31 | C=CCn1c(=O)c2cnc(Nc3ccc(N4CCN(C)CC4)cc3)nc2n1-c1cccc(C(C)(C)O)n1 + CN(C)c1ccc(Nc2c3ccc(NC(=O)CCN4CCCC4)cc3nc3cc(NC(=O)CCN4CCCC4)ccc23)cc1 | 190
